# Results as given in US20160251367A1, “SYNTHESIS OF TRITOQUALINE SALTS” (Chrysalis Pharma, priority 2014, published 2016).
# Assay: physchem
# Type: physicochemical
# Conditions: not given
# From the text: The dissolution tests show a very substantial and surprising increase in tritoqualine.
Molecule,increase of the initial solubility of tritoqualine in water,solubility
"CC(=O)O.CCOc1c(N)c2c(c(OCC)c1OCC)C(C1c3c(cc4c(c3OC)OCO4)CCN1C)OC2=O (centres unmarked) [Tritoqualine acetate, tritoqualine acetate]",1500 times,0.75 M/L
"CC1(C)C2CCC1(CS(=O)(=O)O)C(=O)C2.CCOc1c(N)c2c(c(OCC)c1OCC)C(C1c3c(cc4c(c3OC)OCO4)CCN1C)OC2=O (centres unmarked) [Tritoqualine camphorsulfonate, tritoqualine camphorsulfonate]",11 000 times,
"CCOc1c(N)c2c(c(OCC)c1OCC)C(C1c3c(cc4c(c3OC)OCO4)CCN1C)OC2=O.O=C(O)C=CC(=O)O (centres unmarked) [Tritoqualine fumarate, tritoqualine fumarate]",15 000 times,
"CCOc1c(N)c2c(c(OCC)c1OCC)C(C1c3c(cc4c(c3OC)OCO4)CCN1C)OC2=O.Cl (centres unmarked) [Tritoqualine hydrochloride, tritoqualine hydrochloride]",500 times,0.25 M/L
"CCOc1c(N)c2c(c(OCC)c1OCC)C(C1c3c(cc4c(c3OC)OCO4)CCN1C)OC2=O.CS(=O)(=O)O (centres unmarked) [Tritoqualine methylsulfonate, tritoqualine methylsulfonate]",50 000 times,
"CCOc1c(N)c2c(c(OCC)c1OCC)C(C1c3c(cc4c(c3OC)OCO4)CCN1C)OC2=O.O=P(O)(O)O (centres unmarked) [Tritoqualine phosphate, tritoqualine phosphate]",31 000 times,
tritoqualine sulfate,2500 times,1.25 M/L

# Same assay, conditions: water
row,Molecule,solubility
1,"CCOc1c(N)c2c(c(OCC)c1OCC)C(C1c3c(cc4c(c3OC)OCO4)CCN1C)OC2=O (racemic) [tritoqualine, 7-Amino-4,5,6-triethoxy-3-(5,6,7,8-tetrahydro-4-methoxy-6-methyl-1,3-dioxolo[4,5-g]isoquinolin-5-yl) phthalide]",500 µM
